# Assay results from ChEMBL document CHEMBL1201862, “PubChem BioAssay data set” (2004).
# Where a name gives a salt, the structure may show the parent alone. Active and inactive are the calls of the source.
# What was measured:
# Vero [1] = assay: cells; format: functional, cell-based; conditions: Chlorocebus sabaeus
# Vero [2] = assay: cells; format: functional; conditions: Chlorocebus sabaeus
# [3] = viability of uninfected HEp-2 cells – cell-based, HTS, cytotoxicity control for RSV inhibitor project, dose response (AID 2410); format: functional; conditions: human respiratory syncytial virus
# [4] = A cytotoxicity screen of small molecule inhibitors of the PhoP region in Salmonella typhi identified in the primary screen. [Related pubchem assays: 1850, 1864, 1985 ]; format: functional
# [5] = molecular target: DNA dC->dU-editing enzyme APOBEC-3A (Homo sapiens, UniProt P31941); assay: A3A deaminase inhibition for selectivity – biochemical, dose response (AID 504722); format: functional
# Chain of DNA dC->dU-editing enzyme APOBEC-3A (P31941 whole entry): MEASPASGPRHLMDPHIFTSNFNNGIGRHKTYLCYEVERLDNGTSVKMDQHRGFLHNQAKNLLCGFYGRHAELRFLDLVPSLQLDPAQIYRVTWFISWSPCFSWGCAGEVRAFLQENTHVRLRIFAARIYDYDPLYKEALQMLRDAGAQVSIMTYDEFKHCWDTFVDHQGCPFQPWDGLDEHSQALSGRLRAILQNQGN
# [6] = molecular target: DNA dC->dU-editing enzyme APOBEC-3G (Homo sapiens, UniProt Q9HC16); assay: Dose Response confirmation of small molecule APOBEC3G DNA Deaminase Inhibitors via a fluorescence-based single-stranded DNA deaminase assay. [Related pubchem assays (depositor defined):AID493012, AID493028]; format: functional
# Chain of DNA dC->dU-editing enzyme APOBEC-3G (Q9HC16 whole entry): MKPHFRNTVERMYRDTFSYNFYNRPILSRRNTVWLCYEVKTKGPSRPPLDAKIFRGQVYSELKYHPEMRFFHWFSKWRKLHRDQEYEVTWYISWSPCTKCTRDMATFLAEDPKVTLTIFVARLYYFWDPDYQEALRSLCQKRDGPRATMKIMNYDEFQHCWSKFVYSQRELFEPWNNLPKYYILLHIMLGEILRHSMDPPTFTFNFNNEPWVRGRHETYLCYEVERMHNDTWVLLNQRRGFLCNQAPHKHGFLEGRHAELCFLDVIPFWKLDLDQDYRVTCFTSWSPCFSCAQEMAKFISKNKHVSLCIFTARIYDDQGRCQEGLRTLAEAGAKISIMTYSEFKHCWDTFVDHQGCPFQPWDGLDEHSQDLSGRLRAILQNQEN
# [7] = viability loss of HPDE-C7K cells – cell-based, fluorescence, HTS, primary screen (AID 431); format: functional; conditions: Homo sapiens
# [8] = HPDE-C7 pancreatic duct cell viability loss – fluorescence, HTS (AID 430); format: functional, cell-based; conditions: Homo sapiens
# Leucine aminopeptidase = molecular target: T1, Leucine aminopeptidase (Plasmodium falciparum 3D7, UniProt Q8IL11); assay: P. falciparum M17LAP inhibitors, primary screen, biochemical, fluorogenic H-Leu-NHMec substrate, 1536-well (AID 1619); format: functional
# T1 sequence (Q8IL11 whole entry): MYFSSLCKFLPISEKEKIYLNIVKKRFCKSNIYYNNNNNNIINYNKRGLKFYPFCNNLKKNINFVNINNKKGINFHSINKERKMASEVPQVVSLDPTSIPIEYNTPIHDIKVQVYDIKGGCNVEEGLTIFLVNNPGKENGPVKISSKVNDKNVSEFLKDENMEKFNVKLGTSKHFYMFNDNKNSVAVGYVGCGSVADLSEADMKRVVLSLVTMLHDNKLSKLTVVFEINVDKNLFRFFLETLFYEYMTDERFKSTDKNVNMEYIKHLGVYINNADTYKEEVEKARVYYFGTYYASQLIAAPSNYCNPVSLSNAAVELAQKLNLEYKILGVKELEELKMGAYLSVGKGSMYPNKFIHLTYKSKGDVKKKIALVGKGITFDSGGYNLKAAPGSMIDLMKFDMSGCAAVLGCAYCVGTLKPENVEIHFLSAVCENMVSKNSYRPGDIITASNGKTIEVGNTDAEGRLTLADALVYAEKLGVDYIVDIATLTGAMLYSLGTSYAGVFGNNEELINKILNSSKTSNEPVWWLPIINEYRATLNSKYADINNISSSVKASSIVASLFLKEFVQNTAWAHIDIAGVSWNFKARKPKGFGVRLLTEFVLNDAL
# Streptokinase A = molecular target: T2, Streptokinase A (Streptococcus pyogenes serotype M1, UniProt P10520); assay: viability-normalized secreted streptokinase activity reduction – plasminogen activation absorbance, OD405, dose response (AID 1914); format: functional, Streptococcus pyogenes M1 GAS;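 also: secreted streptokinase activity via plasminogen activation per viability signal from cell pellet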
# T2 sequence (P10520 whole entry): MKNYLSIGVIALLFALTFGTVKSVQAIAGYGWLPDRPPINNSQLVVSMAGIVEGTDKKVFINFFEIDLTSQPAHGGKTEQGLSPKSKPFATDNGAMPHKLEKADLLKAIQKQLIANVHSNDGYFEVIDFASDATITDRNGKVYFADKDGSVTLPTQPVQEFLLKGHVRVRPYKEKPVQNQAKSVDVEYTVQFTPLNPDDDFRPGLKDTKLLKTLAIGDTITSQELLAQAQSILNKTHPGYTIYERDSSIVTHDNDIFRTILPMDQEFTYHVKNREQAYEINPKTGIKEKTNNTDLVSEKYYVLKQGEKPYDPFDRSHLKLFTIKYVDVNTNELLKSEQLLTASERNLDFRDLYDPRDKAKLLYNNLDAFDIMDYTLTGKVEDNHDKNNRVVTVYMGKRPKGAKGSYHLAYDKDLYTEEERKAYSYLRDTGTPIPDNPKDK
# Streptococcus = assay: GAS UMAA2166 growth inhibition – luminescence, BacTiterGlo, counter-screen for streptokinase expression inhibitor project, dose response (AID 1915); format: functional, organism-based;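 also: potency for reduction of bacterial viability or growth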
# [9] = tested on: Streptococcus sp. 'group A'; assay: Streptococcus pyogenes SK(-)GAS viability under kanamycin – luminescence, BacTiterGlo, confirmation, counter-screen for streptokinase expression inhibitor project, dose response (AID 1900); format: functional, organism-based
# [10] = molecular target: Glyceraldehyde-3-phosphate dehydrogenase (Homo sapiens, UniProt P04406)
# Chain of Glyceraldehyde-3-phosphate dehydrogenase (P04406 whole entry): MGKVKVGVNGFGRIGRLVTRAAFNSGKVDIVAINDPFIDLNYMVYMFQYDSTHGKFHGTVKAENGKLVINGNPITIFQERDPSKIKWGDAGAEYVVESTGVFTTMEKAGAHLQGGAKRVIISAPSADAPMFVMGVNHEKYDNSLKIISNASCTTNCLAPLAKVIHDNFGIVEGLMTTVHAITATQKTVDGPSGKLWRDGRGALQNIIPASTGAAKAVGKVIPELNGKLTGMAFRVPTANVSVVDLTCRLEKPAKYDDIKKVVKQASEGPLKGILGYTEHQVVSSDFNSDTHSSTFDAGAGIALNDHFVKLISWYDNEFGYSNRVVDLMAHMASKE
# [11] = alpha-synuclein stem-loop luciferase translation blockers – H4 neuroglioma cells, luminescence, confirmation (AID 1988); format: functional, cell-based
# [12] = viability of PTEN-deleted HCT116 cells – cell-based, HCT116 PTEN knockout, dose response (AID 1047); format: functional;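 also: HCT116 colon tumor cells with PTEN knocked out; cells exposed to compound for 60 hours before readout; potency for loss of cell viability measured by luminescence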
# [13] = viability of HCT116 lacking mutant beta-catenin – cell-based, human colon tumor, dose response (AID 1045); format: functional;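 also: HCT116 colon tumor cells with beta catenin knocked out; cells exposed to compound for 60 hours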
# [14] = molecular target: T3, DNA repair protein RAD52 homolog (Homo sapiens, UniProt P43351); format: functional, biochemical
# T3 sequence (P43351 whole entry): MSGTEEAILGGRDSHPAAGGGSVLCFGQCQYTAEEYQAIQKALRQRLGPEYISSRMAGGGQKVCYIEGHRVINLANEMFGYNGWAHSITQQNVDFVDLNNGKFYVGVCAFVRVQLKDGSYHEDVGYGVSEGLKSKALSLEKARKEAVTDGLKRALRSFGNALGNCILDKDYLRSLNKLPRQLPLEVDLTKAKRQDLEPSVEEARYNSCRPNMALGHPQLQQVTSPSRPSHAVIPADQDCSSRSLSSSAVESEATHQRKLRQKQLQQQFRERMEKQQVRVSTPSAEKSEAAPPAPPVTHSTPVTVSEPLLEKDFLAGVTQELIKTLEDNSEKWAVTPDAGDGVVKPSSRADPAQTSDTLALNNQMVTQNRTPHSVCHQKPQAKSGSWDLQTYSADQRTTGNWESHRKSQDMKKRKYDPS
# [15] = Luminescence Cell-Based Dose Response HTS to Identify Inhibitors of 5'UTR Stem-Loop Driven Prion Protein mRNA Translation in H4 Neuroglioblastoma Cells. [Related pubchem assays: 1827 (Project Summary), 1813 (Primary HTS)]; format: functional
# [16] = luciferase reporter signal suppression in cells – H4 neuroglioma cells, luminescence, dose response (AID 1990); format: functional, cell-based
# [17] = molecular target: T4, Short transient receptor potential channel 4 (Mus musculus, UniProt Q9QUQ5); assay: block of DAMGO-driven TRPC4 calcium entry – cell-based, HEK293 TRPC4/mu-opioid, Fluo-4 calcium, dose response (AID 434942); format: functional;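 also: potency of inhibitors blocking the TRPC4 calcium response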
# T4 sequence (Q9QUQ5 whole entry): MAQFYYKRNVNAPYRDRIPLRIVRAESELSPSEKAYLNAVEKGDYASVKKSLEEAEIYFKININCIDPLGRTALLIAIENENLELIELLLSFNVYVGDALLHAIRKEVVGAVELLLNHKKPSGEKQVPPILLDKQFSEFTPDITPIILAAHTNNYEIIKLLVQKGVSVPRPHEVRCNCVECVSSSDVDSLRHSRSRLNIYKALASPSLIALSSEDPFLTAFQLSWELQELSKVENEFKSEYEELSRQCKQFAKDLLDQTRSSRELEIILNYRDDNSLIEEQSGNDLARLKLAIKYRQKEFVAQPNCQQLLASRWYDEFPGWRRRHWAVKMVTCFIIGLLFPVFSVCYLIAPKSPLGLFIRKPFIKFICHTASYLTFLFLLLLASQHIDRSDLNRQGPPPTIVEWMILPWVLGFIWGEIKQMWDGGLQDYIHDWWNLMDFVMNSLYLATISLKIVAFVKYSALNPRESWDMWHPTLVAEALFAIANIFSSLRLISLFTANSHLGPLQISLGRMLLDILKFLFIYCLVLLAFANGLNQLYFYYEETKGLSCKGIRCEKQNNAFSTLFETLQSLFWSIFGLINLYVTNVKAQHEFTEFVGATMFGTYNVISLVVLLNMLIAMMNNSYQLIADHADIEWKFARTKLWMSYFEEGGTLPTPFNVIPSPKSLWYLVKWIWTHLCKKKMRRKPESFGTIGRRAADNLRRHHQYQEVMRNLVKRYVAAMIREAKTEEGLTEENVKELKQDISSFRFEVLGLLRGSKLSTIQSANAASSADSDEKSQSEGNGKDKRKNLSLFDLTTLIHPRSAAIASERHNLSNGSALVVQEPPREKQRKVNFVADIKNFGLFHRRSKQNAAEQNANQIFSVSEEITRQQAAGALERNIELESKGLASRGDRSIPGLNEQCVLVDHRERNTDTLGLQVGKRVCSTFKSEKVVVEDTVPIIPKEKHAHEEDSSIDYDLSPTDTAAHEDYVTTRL
# Cytochrome P450 2C19 = Cytochrome P450 2C19 (Homo sapiens, UniProt P33261); assay: Cytochrome panel assay with activity outcomes. Panel member name: p450-cyp2c19 Compounds with AC50 equal or less than 10 uM are considered active; format: functional; conditions: read-out: AC50
# Chain of Cytochrome P450 2C19 (P33261 whole entry): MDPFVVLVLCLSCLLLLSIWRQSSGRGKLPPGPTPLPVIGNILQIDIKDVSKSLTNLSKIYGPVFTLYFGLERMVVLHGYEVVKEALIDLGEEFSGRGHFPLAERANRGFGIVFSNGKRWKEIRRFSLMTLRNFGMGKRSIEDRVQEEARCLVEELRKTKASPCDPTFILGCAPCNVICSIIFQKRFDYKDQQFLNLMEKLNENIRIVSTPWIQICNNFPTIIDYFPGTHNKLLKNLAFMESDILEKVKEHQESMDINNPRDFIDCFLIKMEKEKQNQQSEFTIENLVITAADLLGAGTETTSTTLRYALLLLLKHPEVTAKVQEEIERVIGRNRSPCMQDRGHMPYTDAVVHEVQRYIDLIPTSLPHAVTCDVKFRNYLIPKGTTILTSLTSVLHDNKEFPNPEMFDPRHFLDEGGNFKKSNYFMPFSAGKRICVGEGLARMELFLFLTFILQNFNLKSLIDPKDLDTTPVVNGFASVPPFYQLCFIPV
# Cytochrome P450 2D6 = Cytochrome P450 2D6 (Homo sapiens, UniProt P10635);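 also: CYP2D6 member of a cytochrome P450 panel assay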
# Chain of Cytochrome P450 2D6 (P10635 whole entry): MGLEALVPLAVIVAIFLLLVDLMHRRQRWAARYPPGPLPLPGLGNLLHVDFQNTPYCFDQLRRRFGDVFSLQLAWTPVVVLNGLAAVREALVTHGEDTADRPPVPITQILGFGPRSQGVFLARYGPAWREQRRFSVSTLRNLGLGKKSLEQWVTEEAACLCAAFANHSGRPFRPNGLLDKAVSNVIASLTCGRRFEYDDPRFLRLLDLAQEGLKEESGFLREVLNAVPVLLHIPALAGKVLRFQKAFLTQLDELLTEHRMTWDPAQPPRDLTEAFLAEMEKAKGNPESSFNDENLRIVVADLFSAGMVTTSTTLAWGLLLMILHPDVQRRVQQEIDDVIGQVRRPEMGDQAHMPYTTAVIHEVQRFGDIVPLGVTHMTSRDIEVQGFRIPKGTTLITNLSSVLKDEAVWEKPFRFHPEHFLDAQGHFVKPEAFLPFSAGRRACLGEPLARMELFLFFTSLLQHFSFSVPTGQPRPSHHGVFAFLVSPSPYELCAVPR
# [18] = Luminescence Cell-Based Dose Retest to Confirm Inhibitors of Cancer Stem Cells. [Related pubchem assays (depositor defined):AID2717, AID2721]; format: functional; conditions: Homo sapiens
# [19] = P. falciparum Dd2 growth inhibitors, dose response, SYBR Green, cherry-picked samples (AID 1159567); format: functional, cell-based
# INS1 = assay: INS-1E survival protection against cytokine death – cell-based, luminescence, retest, dose response (AID 449756); format: functional; conditions: Rattus norvegicus;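 also: cell death triggered by IL-1 beta plus TNF-alpha plus IFN-gamma mixture; protective hits raise ATP signal compared with cytokine alone wells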
structure (smiles),measurement,setting,value
CC(=O)/C(C#N)=C1\NC(=O)C(Cc2ccccc2C)S1 (stereo not given),IC50,Vero [1],5.5 µM (active)
same,CC50,Vero [2],> 25 µM (active)
same,CC50,[3],5.95 µM (active)
same,IC50,cells,2.54 µM (active)
COc1cccc(NC(=O)N2CCCC(C(=O)Nc3ccccc3OC)C2)c1 (stereo not given),EC50,[4],> 50 µM (active)
Sc1nnc(-c2cccnc2)n1/N=C/c1ccccc1,IC50,[5],> 100 µM (inactive)
same,IC50,[6],2.02 µM (active)
CCn1c(-c2cccc(Cl)c2)n[nH]c1=S,IC50,[5],> 100 µM (inactive)
same,IC50,[6],6.09 µM (active)
CCCCC[C@H](O)/C=C/[C@H]1C=CC(=O)[C@@H]1C/C=C\CCCC(=O)O [PROSTAGLANDIN A2],EC50,[7],> 20 µM (not active)
same,EC50,[8],> 20 µM (not active)
Oc1cc(O)c2sc3nc(-c4cccnc4)cc(C(F)(F)F)c3c2n1,IC50,Leucine aminopeptidase,58.2 µM (active)
CC(=O)/C(C#N)=C1\NC(=O)C(Cc2ccccc2Cl)S1 (stereo not given),IC50,Vero [1],2.83 µM (active)
same,IC50,Leucine aminopeptidase,26.6 µM (active)
same,CC50,Vero [2],18.9 µM (active)
CCOc1ccc(N(Cc2cc3cc(OC)ccc3nc2O)S(C)(=O)=O)cc1,EC50,[7],> 20 µM (not active)
same,EC50,[8],> 20 µM (not active)
O=C(Cc1cccs1)NNC(=S)NC(=O)c1ccccc1,EC50,Streptokinase A,> 150 µM (not active)
same,IC50,Leucine aminopeptidase,30 µM (active)
same,EC50,Streptococcus,16.9 µM (active)
same,EC50,[9],4.36 µM (active)
Cn1c(C(=O)NCc2ccccc2)cc2oc3ccccc3c21,IC50,Vero [1],1.87 µM (active)
same,CC50,Vero [2],> 25 µM (active)
same,CC50,[3],28.9 µM (active)
same,IC50,cells,7.04 µM (active)
CSc1ncccc1C(=O)Nc1nc(C(C)(C)C)cs1,CC50,[3],49.6 µM (active)
same,IC50,cells,4.75 µM (active)
O=C(O)c1cc(N2C(=O)C3C4c5ccccc5C(c5ccccc54)C3C2=O)ccc1O (stereo not given),IC50,[10],> 100 µM (not active)
CSc1ccc2c(c1)N(CCC1CCCCN1C)c1ccccc1S2 (stereo not given) [THIORIDAZINE HYDROCHLORIDE],EC50,[11],> 120 µM (not active)
same,EC50,[12],11.1 µM (active)
same,EC50,[13],9.28 µM (active)
same,AC50,[14],13.7 µM (active)
same,EC50,[15],> 60 µM (not active)
same,EC50,[7],3.43 µM (active)
same,EC50,[8],8.18 µM (active)
same,EC50,[16],> 120 µM (not active)
Cc1c(NC(=O)CN2C(=O)NC3(CCCCC3C)C2=O)cccc1[N+](=O)[O-] (stereo not given),IC50,cells,11.6 µM (active)
Cc1ccc(-c2n[nH]c(=S)n2C)cc1Cl,IC50,[5],> 100 µM (inactive)
same,IC50,[6],4.34 µM (active)
CCOC(=O)C1=NN(c2ccccc2C)C2=NC(C)=C(C(=O)OC)C(c3cccc(OC)c3)N12 (stereo not given),EC50,[17],2.99 µM (active)
COc1ccc(C(=O)N/C(=C/c2cccs2)c2nc3ccccc3[nH]2)cc1OC,IC50,cells,22.6 µM (active)
CCc1nnc(NS(=O)(=O)c2ccc(/N=C/c3c(C)nn(-c4ccc(C)cc4)c3O)cc2)s1,AC50,Cytochrome P450 2C19,5.01 µM (inconclusive)
same,AC50,Cytochrome P450 2D6,5.62 µM (inconclusive)
same,IC50,Leucine aminopeptidase,8.11 µM (active)
N#CC1=C(SCC(=O)c2ccc(Cl)cc2)N=C2CCCC(O)=C2C1c1ccco1 (stereo not given),AC50,[18],2.64 µM (active)
same,EC50,[7],7.7 µM (active)
same,EC50,[8],7.64 µM (active)
COc1ccc(N(CC(=O)N2c3ccccc3CC2C)S(=O)(=O)c2c(C)noc2C)cc1 (stereo not given),EC50,[4],> 50 µM (active)
Cc1cc(C)c(CSc2ncnc3[nH]cnc23)c(C)c1,EC50,[4],> 50 µM (active)
O=C(C1CCOCC1)N1[C@H](CO)[C@@H](c2ccccc2)C12CN(Cc1cccc(Cl)c1)C2,AC50,[19],5.41 µM (active)
N#CC1=C2SCN(c3ccccc3)CN2C(=O)CC1c1cccs1 (stereo not given),IC50,[5],> 100 µM (inactive)
same,IC50,[6],7.25 µM (active)
CCS(=O)(=O)N1CCCCN2[C@H](CO)[C@@H](c3ccc(-c4cccc(C#N)c4)cc3)[C@@H]2C1,AC50,[19],9.04 µM (active)
Brc1ccccc1CN1CCN(Cc2c[nH]c3ccccc23)CC1,EC50,[17],0.0747 µM (active)
same,AC50,INS1,2.16 µM (active)
